Results reported in US7071316B1, “Human Akt-3” (Janssen Pharmaceutica N.V., priority 1998, dated 2006).
Values joined by “and” are separate entries in the source; they are usually repeats but may differ in a detail not shown here. Equal values may be shown once. One block for each molecule: values may come before it.

What was measured:
Akt-3 [1] = assay: Activation of HA-tagged Akt-3 by IGF in transfected HEK-293 cells (immunoprecipitate, Crosstide phosphorylation); format: cell-based, human
Protocol: FIG. 3 is an illustration of phosphorylation of histone H2B by Akt-3 variants. (A) Akt-3 was expressed as a GST fusion protein in E. Coli. To assess hAkt-3 activity, Histone H2B was incubated with GST-Akt-3 and GST-Akt-3 variants for the indicated time and the extent of phosphorylation assessed after SDS-PAGE. The variants of Akt-3 are designated: W.T., wild type; T305D, Thr^305 mutated to Asp; S472D, Ser^472 mutated to Asp; T305D,S472D, both Thr^305 and Ser^472 mutated to Asp. No significant phosphorylation was observed when GST was used in place of GST-Akt. […] Samples were analysed by blotting for the HA-tag (upper panel) or with a phosphospecific antibody which recognises phosphorylated ser^472 (lower panel). (C) Akt activity in HA-immuno-precipitates from samples prepared as described above was assessed by measuring phosphorylation of a peptide substrate (Crosstide). The results are expressed as the increase in activity compared to unstimulated cells transfected with empty vector (mean±s.e.m., n=7).
For expression in HEK-293 cells, cells were transfected with pCDNA-3 Akt-3 constructs as described previously (Alessi et al 1996). […] Akt activity was assessed in immune complexes by measuring phosphorylation of a peptide substrate (Crosstide) in the presence of 1 μM PKI (PKA inhibitor) and 1 μM […] (PKC inhibitor) as described.

[2] = target: T1, T305D,S472D variant of Akt-3 (Homo sapiens, UniProt Q9Y243, S472D/T305D); assay: Akt-3 histone H2B phosphorylation assay (GST fusion protein from E. coli, phosphorimager after SDS-PAGE); format: biochemical; conditions: for effect on the activity of the T305D,S472D variant of Akt-3: tested at a concentration of 10 FM
T1 construct: made in house; host or cells: E. coli BL21 DE3 (pGEX-4T-3)
T1 sequence (Q9Y243 whole entry T305D/S472D, the tested form may be a part): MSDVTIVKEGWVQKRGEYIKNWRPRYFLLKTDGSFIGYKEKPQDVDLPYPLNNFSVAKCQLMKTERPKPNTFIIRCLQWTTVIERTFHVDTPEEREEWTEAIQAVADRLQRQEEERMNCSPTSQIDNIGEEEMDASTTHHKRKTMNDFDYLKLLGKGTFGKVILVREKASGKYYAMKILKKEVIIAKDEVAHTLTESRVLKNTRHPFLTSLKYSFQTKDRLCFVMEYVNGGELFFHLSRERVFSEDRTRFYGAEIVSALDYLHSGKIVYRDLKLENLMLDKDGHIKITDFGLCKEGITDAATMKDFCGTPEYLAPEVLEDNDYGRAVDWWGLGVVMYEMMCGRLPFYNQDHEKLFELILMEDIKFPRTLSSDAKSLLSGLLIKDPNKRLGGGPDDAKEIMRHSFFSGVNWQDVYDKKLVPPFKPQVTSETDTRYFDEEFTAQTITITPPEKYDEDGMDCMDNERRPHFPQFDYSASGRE
Protocol: After 30 minutes, the reaction was terminated and the extent of H2B phosphorylation quantified on a phosphorimager following SDS-PAGE.
The pGEX expression constructs were transformed into E. coli strain BL21 DE3 and GST-fusion proteins of wild-type and mutated Akt-3 were purified on glutathione sepharose according to the manufacturers instructions (Amersham Pharmacia Biotech, Uppsala, Sweden). The protein eluted from the beads was stored in 50% glycerol at −20° C. Akt activity was assessed by incubating 0.8 Fg of the purified enzyme for 30 minutes at room temperature (unless otherwise indicated) in a buffer containing 10 mM HEPES, 10 mM MgCl2, 1 mM DTT, 0.1 mg/ml histone H2B at pH 7.0, in a total volume of 25 Fl and containing 10 FCi [γ-^32P]-ATP (6000 Ci/mmol). […] The reaction was stopped by the addition of 25 Fl sample buffer for SDS-PAGE. The results were quantified on a phosphorimager following SDS-PAGE on a 15% (w/v) acrylamide gel.

PKC [3] = conditions: Davis, et al., 1992; cited from earlier work
PKC [4] = assay: Inhibition of PKC (literature, Davis et al., 1992); format: biochemical; conditions: more potent inhibitor of PKC than of Akt-3
histone H2B [5] = test system: histone H2B
Akt-3 [6] = assay: Activation of HA-tagged Akt-3 by IGF-1 in transfected Cos-7 cells (HA immunoprecipitates); format: cell-based, human; conditions: stimulation with IGF-1 10 ng/ml, n=2
Protocol: Akt-3 was transiently expressed in Cos-7 by calcium phosphate transfection of the cells with the construct HA-hAkt-3/pcDNA-3. The cells were stimulated with 10 ng/ml IGF-1 for 30 minutes, lysed and Akt-3 immunoprecipitated with mAb 12CA5. Akt-3 activity was assessed as described below.

histone H2B [7] = target: histone H2B; remark: listed apart in the source

Molecule: O=c1cc(N2CCOCC2)oc2c(-c3ccccc3)cccc12 [CY29 4002]
- inhibition of activation of Akt-3 (Akt-3 [1]; prior treatment, 100 FM, HEK-293 cells stimulated with IGF, data not shown): 94%

Molecule: CN(C)CCCn1cc(C2=C(c3c[nH]c4ccccc34)C(=O)NC2=O)c2ccccc21 [GF-109203×]
- effect on the activity of the T305D,S472D variant of Akt-3 [2]: no significant effect

- effect on the activity of the T305D,S472D variant of Akt-3 [2]: no significant effect
Molecule: Cn1c2ccccc2c2c3c(c4c5ccccc5n(CCC#N)c4c21)CNC3=O [Go 6976]

- effect on the activity of the T305D,S472D variant of Akt-3 [2]: no significant effect
Molecule: O=S(=O)(NCCNCC=Cc1ccccc1)c1cccc2cnccc12 [H-88]

- effect on the activity of the T305D,S472D variant of Akt-3 [2]: no significant effect
Molecule: O=S(=O)(NCCNC/C=C/c1ccc(Br)cc1)c1cccc2cnccc12 [H-89]

- effect on the activity of the T305D,S472D variant of Akt-3 [2]: no significant effect
Molecule: CN([C@@H](Cc1ccc(OS(=O)(=O)c2cccc3cnccc23)cc1)C(=O)N1CCN(c2ccccc2)CC1)S(=O)(=O)c1cccc2cnccc12 [KN-62]

- effect on the activity of the T305D,S472D variant of Akt-3 [2]: no significant effect
Molecule: CCCCCCOC(=O)[C@]1(O)C[C@@H]2O[C@@]1(C)n1c3ccccc3c3c4c(c5c6ccccc6n2c5c31)C(=O)NC4 [KT5720]

- effect on the activity of the T305D,S472D variant of Akt-3 [2]: no significant effect
Molecule: COc1cccc(-c2cc(=O)c3ccccc3o2)c1N [PD 98059]

Molecule: Cn1cc(C2=C(c3cn(CCCSC(=N)N)c4ccccc34)C(=O)NC2=O)c2ccccc21 [Ro 31-8220]
- inhibition of Akt-3 (in words) ([2]; discussion summary of the inhibitor panel): potently inhibited
- IC50 (PKC [3]): 0.1 nM
- potency as inhibitor of PKC relative to Akt-3 (PKC [4]): approximately 100 fold

Molecule: GST-Akt-3 S472D (construct hAKT-3(S472D)/pGEX-4T-3)
- initial rate of phosphorylation of histone H2B, relative to the wild-type enzyme (histone H2B [5]): increased the initial rate only 1.4 fold

Molecule: GST-Akt-3 T305D (construct hAKT-3(T305D)/pGEX-4T-3)
- initial rate of phosphorylation of histone H2B, relative to the wild-type enzyme (histone H2B [5]): 2.0-fold increase

Molecule: GST-Akt-3 T305D,S472D (construct hAKT-3(T305D/S472D)/pGEX-4T-3)
- initial rate of phosphorylation of histone H2B, relative to the wild-type enzyme (histone H2B [5]): 3.2-fold increase

Molecule: IGF-1: extracellular stimulus (growth factor) used to activate Akt-3 in transfected cells
- increase of Akt-3 activity in HA immunoprecipitates (Akt-3 [6]): 1.5 fold and 1.9 fold
- increase of Akt-3 activity in anti-HA immunoprecipitates (Akt-3 [1]; upon treatment with IGF (50 ng/ml), above that in untransfected cells, HEK-293): ~60 fold

B1: GST-Akt-3 wild type (construct hAKT-3(WT)/pGEX-4T-3) (protein)
chain: MSDVTIVKEGWVQKRGEYIKNWRPRYFLLKTDGSFIGYKEKPQDVDLPYPLNNFSVAKCQLMKTERPKPNTFIIRCLQWTTVIERTFHVDTPEEREEWTEAIQAVADRLQRQEEERMNCSPTSQIDNIGEEEMDASTTHHKRKTMNDFDYLKLLGKGTFGKVILVREKASGKYYAMKILKKEVIIAKDEVAHTLTESRVLKNTRHPFLTSLKYSFQTKDRLCFVMEYVNGGELFFHLSRERVFSEDRTRFYGAEIVSALDYLHSGKIVYRDLKLENLMLDKDGHIKITDFGLCKEGITDAATMKTFCGTPEYLAPEVLEDNDYGRAVDWWGLGVVMYEMMCGRLPFYNQDHEKLFELILMEDIKFPRTLSSDAKSLLSGLLIKDPNKRLGGGPDDAKEIMRHSFFSGVNWQDVYDKKLVPPFKPQVTSETDTRYFDEEFTAQTITITPPEKYDEDGMDCMDNERRPHFPQFSYSASGRE
- phosphorylation of histone H2B (histone H2B [7]): The purified enzyme was able to phosphorylate histone H2B
